Experimental data taken from PubChem BioAssay AID1963844 (Molecular Pharmacology Branch, DTP, NCI, 2024).
pIC50: −log10 of the molar value. Several values for one entry are separate records, joined by “and”; a condition that tells them apart may be missing. Equal entries are not always repeated.

System: 422866-222-R5-J1-PDC complex spheroid viability
Assay: Anticancer human tumor 422866-222-R5-J1-PDC patient-derived pancreatic adenocarcinoma cell line growth inhibition [POLQ]
Conditions: for viability, T/C: stronger effect = lower value
Protocol: Multicellular complex tumor spheroid response to Polymerase (POL) inhibitors (novobiocin, ART-558, RP6685) in combination with a variety of drugs and investigational agents in selected tumor cell lines
The POL inhibitors (novobiocin, ART-558, and RP6685) were evaluated both individually and in combination with standard of care and investigational anticancer small molecules within a complex spheroid model of solid tumors. . Complex spheroids include a stromal component modeled by human endothelial cells (HUVEC) and fibroblasts modeled by human mesenchymal stem cells (MSCs). The concentration ranges selected for each drug and investigational agent were based upon clinically achievable concentrations if the clinical Cmax of the agent was known.
Compounds. The drugs and investigational agents: novobiocin (NSC847541), ART-558 (NSC835418), RP-6685 (NSC848927), peposertib (NSC802822), ceralasertib (NSC780249), elimusertib (NSC800525), camonsertib (NSC841442), AZD-1390 (NSC803789), olaparib (NSC753686), talazoparib (NSC767125), rucaparib (NSC756644), sotorasib (NSC818433), MRTX-1133 (NSC836407), SN-38 (NSC673596), topotecan (NSC609699), epotoside (NSC141540), doxorubicin (NSC123127), gemcitabine (NSC613327), 5-fluorouracil (NSC19893), paclitaxel (NSC125973), vemurafenib (NSC761431), MSA-2 (NSC828583), SN-011 (NSC837082), adavosertib (NSC754352), prexasertib (NSC758257), carboplatin (NSC241240) and oxaliplatin (NSC266046), were obtained from the National Cancer Institute (NCI) Developmental Therapeutics Program Chemical Repository (21). The FDA-approved anticancer drug set is available from the Developmental Therapeutics Program at https://dtp.cancer.gov/organization/dscb/obtaining/. […] The stock solutions were prepared in dimethyl sulfoxide (DMSO, Sigma-Aldrich, St. Louis, MO, cat. D2650), except for the platinum compounds which were prepared in saline (Quality Biological, Gaithersburg, MD, cat. 114-055-101), at 800-fold the tested concentration and stored at -70 degrees C prior to their use. All drugs and investigational agents were tested over a range starting from a high concentration at or near the clinical Cmax and decreasing in half-log increments. If the clinical Cmax for an agent had not been determined, the highest concentration tested was 10 microM, except for SN-38, which was tested at a high concentration of 1 microM.
Cell Culture. All cells were maintained in an incubator at 37 degrees C and 5% CO2 with 95% humidity. The PDC lines were cultured according to standard operating procedures established by the NCI PDMR (https://pdmr.cancer.gov). Table 3 of the manuscript, lists the cell lines along with the number of the three cell types plated to form the mct-spheroids and media for tumor cell growth. After thawing, all PDC lines, except 997537-175-T-J1-PDC and 415267-285-R-J2-PDC, were cultured in Matrigel-coated flasks prepared with a working solution of 1X Ham's F-12 nutrient mix, without supplementation (Thermo Fisher Scientific, cat. 11765054), 100 U/mL penicillin-streptomycin (Thermo Fisher Scientific, cat. 15140122), and 2.5% Matrigel (Corning Inc., Corning, NY, cat. 354248) for the first three passages. The two PDC lines 997537-175-T-J1-PDC and 415267-285-R-J2-PDC were cultured on uncoated flasks. The 857933-349-R-J2-PDC line was cultured in 6C/Colon 1B media containing advanced DMEM/F-12 (Thermo Fisher Scientific, cat. 12634028), 10 mM HEPES (Thermo Fisher Scientific, cat. 15630080), 1X GlutaMAX supplement (Thermo Fisher Scientific, cat. 35050061), 0.1 mg/mL primocin (InvivoGen, San Diego, CA, cat. ant-pm-2), 10% defined fetal bovine serum, heat inactivated (HyClone Laboratories Inc., Logan, UT, cat. SH30070.03HI), 50% L-WRN conditioned media (ATCC, cat. CRL-3276), 1.25 mM N-Acetyl-L-cysteine (Sigma-Aldrich, cat. A9165), 10 mM nicotinamide (Sigma-Aldrich, cat. N0636), 1X B-27 supplement (Thermo Fisher Scientific, cat. 17504044), 1X N-2 supplement (Thermo Fisher Scientific, cat. […]

[1] = curve of first compound, second compound 0.0316 µM
[2] = curve of first compound, second compound 0.1 µM
[3] = curve of first compound, second compound 0.316 µM
[4] = curve of first compound, second compound 1 µM
[5] = curve of first compound, second compound 3.16 µM
[6] = curve of first compound, second compound 10 µM
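Further: spheroids exposed to compounds for one week before readout.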
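Wherever viability, T/C is given: percent of DMSO vehicle wells luminescence so 100% = untreated viability.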

SMILES: CC(=O)O[C@H]1C(=O)[C@@]2(C)[C@H]([C@H](OC(=O)c3ccccc3)[C@]3(O)C[C@H](OC(=O)[C@H](O)[C@@H](NC(=O)c4ccccc4)c4ccccc4)C(C)=C1C3(C)C)[C@]1(OC(C)=O)CO[C@@H]1C[C@@H]2O + COC1C(OC(N)=O)C(O)C(Oc2ccc3c(O)c(NC(=O)c4ccc(O)c(CC=C(C)C)c4)c(=O)oc3c2C)OC1(C)C
- pIC50 [1]: < 5.52
- pIC50 [2]: < 5.52
- pIC50 [3]: < 5.52
- pIC50 [4]: < 5.52
- pIC50 [5]: < 5.52
- pIC50 [6]: < 5.52
- viability, T/C (second compound 0.0316 µM, first compound 0.00949 µM): 64.8%
- viability, T/C (second compound 0.0316 µM, first compound 0.03 µM): 57.2%
- viability, T/C (second compound 0.0316 µM, first compound 0.0949 µM): 61.5%
- viability, T/C (second compound 0.0316 µM, first compound 0.3 µM): 59.5%
- viability, T/C (second compound 0.0316 µM, first compound 0.949 µM): 64.7%
- viability, T/C (second compound 0.0316 µM, first compound 3 µM): 80.4%
- viability, T/C (second compound 0.1 µM, first compound 0.00949 µM): 71.6%
- viability, T/C (second compound 0.1 µM, first compound 0.03 µM): 67.4%
- viability, T/C (second compound 0.1 µM, first compound 0.0949 µM): 66%
- viability, T/C (second compound 0.1 µM, first compound 0.3 µM): 67%
- viability, T/C (second compound 0.1 µM, first compound 0.949 µM): 69.1%
- viability, T/C (second compound 0.1 µM, first compound 3 µM): 78.8%
- viability, T/C (second compound 0.316 µM, first compound 0.00949 µM): 67%
- viability, T/C (second compound 0.316 µM, first compound 0.03 µM): 63.5%
- viability, T/C (second compound 0.316 µM, first compound 0.0949 µM): 54.6%
- viability, T/C (second compound 0.316 µM, first compound 0.3 µM): 65.1%
- viability, T/C (second compound 0.316 µM, first compound 0.949 µM): 70.7%
- viability, T/C (second compound 0.316 µM, first compound 3 µM): 84.5%
- viability, T/C (second compound 1 µM, first compound 0.00949 µM): 62.1%
- viability, T/C (second compound 1 µM, first compound 0.03 µM): 54.9%
- viability, T/C (second compound 1 µM, first compound 0.0949 µM): 61.4%
- viability, T/C (second compound 1 µM, first compound 0.3 µM): 56.3%
- viability, T/C (second compound 1 µM, first compound 0.949 µM): 59.6%
- viability, T/C (second compound 1 µM, first compound 3 µM): 81.1%
- viability, T/C (second compound 3.16 µM, first compound 0.00949 µM): 66.8%
- viability, T/C (second compound 3.16 µM, first compound 0.03 µM): 52.9%
- viability, T/C (second compound 3.16 µM, first compound 0.0949 µM): 55.3%
- viability, T/C (second compound 3.16 µM, first compound 0.3 µM): 54%
- viability, T/C (second compound 3.16 µM, first compound 0.949 µM): 75%
- viability, T/C (second compound 3.16 µM, first compound 3 µM): 86.7%
- viability, T/C (second compound 10 µM, first compound 0.00949 µM): 63.7%
- viability, T/C (second compound 10 µM, first compound 0.03 µM): 60.6%
- viability, T/C (second compound 10 µM, first compound 0.0949 µM): 60.3%
- viability, T/C (second compound 10 µM, first compound 0.3 µM): 61.5%
- viability, T/C (second compound 10 µM, first compound 0.949 µM): 72%
- viability, T/C (second compound 10 µM, first compound 3 µM): 91.9%

SMILES: CNCc1ccc(-c2[nH]c3cc(F)cc4c3c2CCNC4=O)cc1 + COC1C(OC(N)=O)C(O)C(Oc2ccc3c(O)c(NC(=O)c4ccc(O)c(CC=C(C)C)c4)c(=O)oc3c2C)OC1(C)C
- pIC50 [1]: < 5.00
- pIC50 [2]: < 5.00
- pIC50 [3]: < 5.00
- pIC50 [4]: < 5.00
- pIC50 [5]: < 5.00
- pIC50 [6]: < 5.00
- viability, T/C (second compound 0.0316 µM, first compound 0.0316 µM): 96.6%
- viability, T/C (second compound 0.0316 µM, first compound 0.1 µM): 97.2%
- viability, T/C (second compound 0.0316 µM, first compound 0.316 µM): 75.3%
- viability, T/C (second compound 0.0316 µM, first compound 1 µM): 97.3%
- viability, T/C (second compound 0.0316 µM, first compound 3.16 µM): 83.4%
- viability, T/C (second compound 0.0316 µM, first compound 10 µM): 105%
- viability, T/C (second compound 0.1 µM, first compound 0.0316 µM): 124%
- viability, T/C (second compound 0.1 µM, first compound 0.1 µM): 109%
- viability, T/C (second compound 0.1 µM, first compound 0.316 µM): 104%
- viability, T/C (second compound 0.1 µM, first compound 1 µM): 99.1%
- viability, T/C (second compound 0.1 µM, first compound 3.16 µM): 76.7%
- viability, T/C (second compound 0.1 µM, first compound 10 µM): 95%
- viability, T/C (second compound 0.316 µM, first compound 0.0316 µM): 99.5%
- viability, T/C (second compound 0.316 µM, first compound 0.1 µM): 101%
- viability, T/C (second compound 0.316 µM, first compound 0.316 µM): 98.2%
- viability, T/C (second compound 0.316 µM, first compound 1 µM): 83%
- viability, T/C (second compound 0.316 µM, first compound 3.16 µM): 92%
- viability, T/C (second compound 0.316 µM, first compound 10 µM): 95.1%
- viability, T/C (second compound 1 µM, first compound 0.0316 µM): 116%
- viability, T/C (second compound 1 µM, first compound 0.1 µM): 104%
- viability, T/C (second compound 1 µM, first compound 0.316 µM): 101%
- viability, T/C (second compound 1 µM, first compound 1 µM): 92.9%
- viability, T/C (second compound 1 µM, first compound 3.16 µM): 96.8%
- viability, T/C (second compound 1 µM, first compound 10 µM): 99%
- viability, T/C (second compound 3.16 µM, first compound 0.0316 µM): 93%
- viability, T/C (second compound 3.16 µM, first compound 0.1 µM): 101%
- viability, T/C (second compound 3.16 µM, first compound 0.316 µM): 92.9%
- viability, T/C (second compound 3.16 µM, first compound 1 µM): 71.7%
- viability, T/C (second compound 3.16 µM, first compound 3.16 µM): 83.5%
- viability, T/C (second compound 3.16 µM, first compound 10 µM): 99%
- viability, T/C (second compound 10 µM, first compound 0.0316 µM): 96.8%
- viability, T/C (second compound 10 µM, first compound 0.1 µM): 102%
- viability, T/C (second compound 10 µM, first compound 0.316 µM): 100%
- viability, T/C (second compound 10 µM, first compound 1 µM): 90%
- viability, T/C (second compound 10 µM, first compound 3.16 µM): 103%
- viability, T/C (second compound 10 µM, first compound 10 µM): 90.2%

SMILES: CC1COCCN1c1cc(C2(S(C)(=N)=O)CC2)nc(-c2ccnc3[nH]ccc23)n1 (stereo unspecified)
- viability, T/C (compound 0.0316 µM): 92.3% and 91.5% and 116%
- viability, T/C (compound 0.1 µM): 101% and 93.1% and 100%
- viability, T/C (compound 0.316 µM): 93.4% and 95.6% and 96.3%
- viability, T/C (compound 1 µM): 74% and 72.6% and 85.2%
- viability, T/C (compound 3.16 µM): 49.9% and 44.6% and 41.7%
- viability, T/C (compound 10 µM): 39.9% and 30.8% and 42%
- pIC50 (curve of compound): 5.52 and 5.61 and 5.58
